Experiments:
[1] = target: Cys242 in human PIK3CA (157-299) (Homo sapiens (Human), UniProt P42336); experiment: Covalent modification assay using MALDI-TOF MS; type: biochemical; conditions: 4 h reaction time point; 1 μM protein target, 1:5 protein to compound ratio (compounds 853-1279)
Summary of the method: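 PIK3CA (157-299), 3.33 or 1 μM in 20 mM HEPES, 150 mM NaCl, 2 mM MgCl2, pH 7.3, was incubated with compound at room temperature in the dark for 15 min, 30 min, 2 h or 4 h. Linear MALDI-TOF read-out; % modification = adduct peak height over summed heights of all protein species.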

pAKT in BT474 cells = experiment: Cell-based pAKT HTRF assay in BT474 cells; conditions: BT474 cells; 4 hr incubation; Compounds 1000-1279; read-out: pAKT inhibition IC50 in BT474 cells
Summary of the method: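 BT474 cells in DMEM/10% FBS were treated the day after seeding with a 9-point, 3-fold compound series from 3 μM (0.25% DMSO) for 4 hr. Lysates were mixed with d2 and Eu cryptate anti-pAKT antibodies and incubated 4-24 h at room temperature. HTRF was read with excitation at 320 nm and emission at 615 nm.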

Cys242 in human PIK3CA (157-299), sequence (P42336 157-299): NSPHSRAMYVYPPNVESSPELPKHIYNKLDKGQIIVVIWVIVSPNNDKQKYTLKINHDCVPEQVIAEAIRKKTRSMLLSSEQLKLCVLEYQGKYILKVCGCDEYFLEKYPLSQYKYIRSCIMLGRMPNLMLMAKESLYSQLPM

| SMILES | % of modification [1] | IC50 (pAKT in BT474 cells) |
| --- | --- | --- |
| C=CC(=O)N1CCn2nc(-c3nc(-c4ccc(OCCN(C)C)c(F)c4)c4ccsc4c3-c3c(F)cc(F)cc3OCCOC)cc2C1C (stereo not drawn) [Compound 1077] | A (percent of modification of PIK3CA protein ≥75%) | < 100 nM |
| C=CC(=O)N1CCn2nc(-c3nc(-c4ccc(OCC5CN(C)C5)cc4)c4ccsc4c3-c3c(F)cc(F)cc3OCCOC)cc2C1C (stereo not drawn) [Compound 1078] | A (percent of modification of PIK3CA protein ≥75%) | < 100 nM |
| C=CC(=O)N1CCn2nc(-c3nc(-c4ccc5c(c4)CNC(=O)C5(C)C)c4ccsc4c3-c3c(F)cc(F)cc3OCCOC)cc2C1C (stereo not drawn) [Compound 1079] | A (percent of modification of PIK3CA protein ≥75%) | < 100 nM |
| C=CC(=O)N1CCn2nc(-c3nc(-c4ccn(C5CN(C)C5)c(=O)c4)c4ccsc4c3-c3c(F)cc(F)cc3OCCOC)cc2C1C (stereo not drawn) [Compound 1080] | A (percent of modification of PIK3CA protein ≥75%) | < 100 nM |
| C=CC(=O)N1CCn2nc(-c3nc(-c4cnc5c(c4)CN(CC(F)F)CC5)c4ccsc4c3-c3c(F)cc(F)cc3OCCOC)cc2C1C (stereo not drawn) [Compound 1081] | A (percent of modification of PIK3CA protein ≥75%) | < 100 nM |
| C=CC(=O)N1CCn2nc(-c3nc(-c4ccc(N5CCN(C)CC5)cc4)c4ccsc4c3-c3c(F)cc(F)cc3OCCOC)cc2C1C (stereo not drawn) [Compound 1082] | A (percent of modification of PIK3CA protein ≥75%) | < 100 nM |
| C=CC(=O)N1CCn2nc(-c3nc(-c4ccc5c(c4)CNC(=O)C54CC4)c4ccsc4c3-c3c(F)cc(F)cc3OCCOC)cc2C1C (stereo not drawn) [Compound 1083] | A (percent of modification of PIK3CA protein ≥75%) | < 100 nM |
| C=CC(=O)N1CCn2nc(-c3nc(-c4cccc(CCN(C)C)c4)c4ccsc4c3-c3c(F)cc(F)cc3OCCOC)cc2C1C (stereo not drawn) [Compound 1084] | A (percent of modification of PIK3CA protein ≥75%) | < 100 nM |
| C=CC(=O)N1CCc2ncc(-c3nc(-c4ccc5c(c4)CCN(C)CC5)c4ccsc4c3-c3c(F)cc(F)cc3OCCOC)cc2C1 [Compound 1085] | A (percent of modification of PIK3CA protein ≥75%) | < 100 nM |
| C=CC(=O)N1CCn2nc(-c3nc(N4CC5(CCNC(=O)C5)C4)c4ccsc4c3-c3c(F)cc(F)cc3OCCOC)cc2C1C (stereo not drawn) [Compound 1088] | B (50%<percent of modification <75%) | 100 to 1000 nM |
| C=CC(=O)N1CCn2nc(-c3nc(-c4ccc(N5CCN(C)CC5)cc4)c4ccsc4c3-c3c(F)cc(F)cc3OCCO)cc2C1C (stereo not drawn) [Compound 1089] | A (percent of modification of PIK3CA protein ≥75%) | < 100 nM |
| C=CC(=O)N1CCn2nc(-c3nc(-c4ccc(CC(=O)N(C)C)cc4)c4ccsc4c3-c3c(F)cc(F)cc3OCCOC)cc2C1C (stereo not drawn) [Compound 1090] | A (percent of modification of PIK3CA protein ≥75%) | < 100 nM |
| C=CC(=O)N1CCn2nc(-c3nc(-c4ccc(OCCN(C)C)cc4F)c4ccsc4c3-c3c(F)cc(F)cc3OCCOC)cc2C1C (stereo not drawn) [Compound 1091] | A (percent of modification of PIK3CA protein ≥75%) | < 100 nM |
| C=CC(=O)N1CCn2nc(-c3nc(-c4ccc5c(c4)[nH]c(=O)n5C)c4ccsc4c3-c3c(F)cc(F)cc3OCCOC)cc2C1C (stereo not drawn) [Compound 1092] | A (percent of modification of PIK3CA protein ≥75%) | < 100 nM |
| C=CC(=O)N1CCn2nc(-c3nc(-c4cnc5c(c4)CN(C(C)C)CC5)c4ccsc4c3-c3c(F)cc(F)cc3OCCOC)cc2C1C (stereo not drawn) [Compound 1093] | A (percent of modification of PIK3CA protein ≥75%) | < 100 nM |
| C=CC(=O)N1CCn2nc(-c3nc(-c4ccc(OC5CN(C)C5)cc4)c4ccsc4c3-c3c(F)cc(F)cc3OCCOC)cc2C1C (stereo not drawn) [Compound 1094] | A (percent of modification of PIK3CA protein ≥75%) | < 100 nM |
| C=CC(=O)N1CCn2nc(-c3nc(-c4ccc(C(=O)NC5CN(C)C5)cc4)c4ccsc4c3-c3c(F)cc(F)cc3OCCOC)cc2C1C (stereo not drawn) [Compound 1095] | A (percent of modification of PIK3CA protein ≥75%) | < 100 nM |
| C=CC(=O)N1CCn2nc(-c3nc(-c4ccc(C(=O)N5CCN(C)CC5)cc4)c4ccsc4c3-c3c(F)cc(F)cc3OCCOC)cc2C1C (stereo not drawn) [Compound 1096] | A (percent of modification of PIK3CA protein ≥75%) | < 100 nM |
| C=CC(=O)N1CCn2nc(-c3nc(-c4cncc(OCCN(C)C)c4)c4ccsc4c3-c3c(F)cc(F)cc3OCCOC)cc2C1C (stereo not drawn) [Compound 1099] | A (percent of modification of PIK3CA protein ≥75%) | < 100 nM |
| C=CC(=O)N1CCn2nc(-c3nc(-c4ccc(C(=O)N(C)C)cc4)c4ccsc4c3-c3c(F)cc(F)cc3OCCOC)cc2C1C (stereo not drawn) [Compound 1100] | A (percent of modification of PIK3CA protein ≥75%) | < 100 nM |

| SMILES | % of modification [1] | IC50 (pAKT in BT474 cells) |
| --- | --- | --- |
| C=CC(=O)N1CCn2nc(-c3nc(-c4ccc5c(c4)c(C)nn5C)c4ccsc4c3-c3c(F)cc(F)cc3OCCO)cc2C1C (stereo not drawn) [Compound 1101] | A (percent of modification of PIK3CA protein ≥75%) | < 100 nM |
| C=CC(=O)N1CCn2nc(-c3nc(-c4ccc(CC(=O)N5CC(F)(F)C5)cc4)c4ccsc4c3-c3c(F)cc(F)cc3OCCOC)cc2C1C (stereo not drawn) [Compound 1102] | A (percent of modification of PIK3CA protein ≥75%) | < 100 nM |
| C=CC(=O)N1CCn2nc(-c3nc(-c4ccc(C(=O)NC)cc4)c4ccsc4c3-c3c(F)cc(F)cc3OCCOC)cc2C1C (stereo not drawn) [Compound 1103] | A (percent of modification of PIK3CA protein ≥75%) | < 100 nM |
| C=CC(=O)N1CCn2nc(-c3nc(-c4ccc5c(c4)CN(C)CC5)c4ccsc4c3-c3c(F)cc(F)cc3OCCOC)cc2C1C (stereo not drawn) [Compound 1104] | A (percent of modification of PIK3CA protein ≥75%) | < 100 nM |
| C=CC(=O)N1CCn2nc(-c3nc(-c4ccc5c(cnn5CCN(C)C)c4)c4ccsc4c3-c3c(F)cc(F)cc3OCCOC)cc2C1C (stereo not drawn) [Compound 1105] | A (percent of modification of PIK3CA protein ≥75%) | < 100 nM |
| C=CC(=O)N1CCc2ccc(-c3nc(-c4cnc(N5CCN(C)CC5)nc4)c4ccsc4c3-c3c(F)cc(F)cc3OCCOC)cc2C1 [Compound 1106] | A (percent of modification of PIK3CA protein ≥75%) | 100 to 1000 nM |
| C=CC(=O)N1CCc2ccc(-c3nc(-c4ccc5c(c4)C(=O)NC5)c4ccsc4c3-c3c(F)cc(F)cc3OCCOC)cc2C1 [Compound 1107] | A (percent of modification of PIK3CA protein ≥75%) | < 100 nM |
| C=CC(=O)N1CCc2ccc(-c3nc(-c4ccc5c(c4)CNC(=O)C5)c4ccsc4c3-c3c(F)cc(F)cc3OCCOC)cc2C1 [Compound 1108] | A (percent of modification of PIK3CA protein ≥75%) | < 100 nM |
| C=CC(=O)N1CCn2nc(-c3nc(-c4ccc5c(cnn5C)c4)c4ccsc4c3-c3c(F)cc(F)cc3OC)cc2C1C (stereo not drawn) [Compound 1111] | C (25%≤percent of modification <50%) | 100 to 1000 nM |
| C=CC(=O)N1CCn2nc(-c3nc(-c4ccc5c(c4)CN(C)CC54CC4)c4ccsc4c3-c3c(F)cc(F)cc3OCCOC)cc2C1C (stereo not drawn) [Compound 1113] | A (percent of modification of PIK3CA protein ≥75%) | < 100 nM |
| C=CC(=O)N1CCn2nc(-c3nc(-c4ccc5c(c4)CN(C)CC54CC4)c4ccsc4c3-c3c(F)cc(F)cc3OCCO)cc2C1C (stereo not drawn) [Compound 1114] | A (percent of modification of PIK3CA protein ≥75%) | < 100 nM |
| C=CC(=O)N1CCn2nc(-c3nc(-c4ccc5c(cnn5C)c4)c4ccsc4c3-c3c(F)cc(F)cc3OC)cc2C1C (stereo not drawn) [Compound 1115] | A (percent of modification of PIK3CA protein ≥75%) | < 100 nM |
| C=CC(=O)N1CCn2nc(-c3nc(-c4ccc5c(c4)C(=O)NC5)c4ccsc4c3-c3c(F)cc(F)cc3OC)cc2C1C (stereo not drawn) [Compound 1117] | A (percent of modification of PIK3CA protein ≥75%) | < 100 nM |
| C=CC(=O)N1CCn2nc(-c3nc(-c4ccc5c(c4)CNC(=O)C54CC4)c4ccsc4c3-c3c(F)cc(F)cc3OCCO)cc2C1C (stereo not drawn) [Compound 1119] | A (percent of modification of PIK3CA protein ≥75%) | < 100 nM |
| C=CC(=O)N1CCn2nc(-c3nc(-c4ccc5c(c4)CCNC5=O)c4ccsc4c3-c3c(F)cc(F)cc3OC)cc2C1C (stereo not drawn) [Compound 1120] | A (percent of modification of PIK3CA protein ≥75%) | < 100 nM |
| C=CC(=O)N1CCn2nc(-c3nc(-c4ccc5c(c4)CCN(CC(F)F)CC5)c4ccsc4c3-c3c(F)cc(F)cc3OCCOC)cc2C1C (stereo not drawn) [Compound 1122] | A (percent of modification of PIK3CA protein ≥75%) | < 100 nM |
| C=CC(=O)N1CCn2nc(-c3nc(-c4ccc5c(cnn5C)c4)c4ccsc4c3-c3c(F)cc(F)cc3OCC(C)(C)O)cc2C1C (stereo not drawn) [Compound 1125] | A (percent of modification of PIK3CA protein ≥75%) | 100 to 1000 nM |
| C=CC(=O)N1CCn2nc(-c3nc(-c4ccc5nn(C)cc5c4)c4ccsc4c3-c3c(F)cc(F)cc3OCC(C)(C)O)cc2[C@H]1C [Compound 1129] | A (percent of modification of PIK3CA protein ≥75%) | < 100 nM |
| C=CC(=O)N1CCn2nc(-c3nc(-c4ccc5c(c4)C(=O)NC5)c4ccsc4c3-c3c(F)cc(F)cc3OCC(C)(C)O)cc2[C@H]1C [Compound 1130] | A (percent of modification of PIK3CA protein ≥75%) | < 100 nM |

Reference: patent US20250230138A1, “COMPOUNDS HAVING A T-STRUCTURE FORMED BY AT LEAST FOUR CYCLES FOR USE IN THE TREATMENT OF CANCER AND OTHER INDICATIONS” (TheRas, Inc., priority 2022, published 2025)
